Where two headings read alike, the source gives them in different places.
Columns and labels:
SARS-CoV-2 Omicron BA.1 = assay: microbe, parasite or virus in culture; format: cell-based; details: for inhibition of SARS-CoV-2 Omicron, dsRNA and nucleocapsids as indicators of viral load: Omicron BA.1, at the concentrations tested; for potency compared with Alotaketal C: dependence on R4 chirality; for SI (selectivity index): CC50 / EC50 BA.1
[1] = Cytotoxicity assay, PrestoBlue cell viability; format: cell-based; details: human; concentration required to reduce cell viability by 50%, Calu-3 cells, 48-hr incubation
Procedure: Calu-3 cells were seeded with 10^4 cells/well in 96-well plates. Twenty-four hr after seeding media was aspirated and serially diluted compounds (described above) were added for an additional 48-hr. incubation. Cellular viability was assessed with Presto Blue Cell Viability Assay™ (Thermo Fisher Scientific™) according to the manufacturer's instructions. Cells were incubated with 5% PrestoBlue™ reagent for 2 hr before reading on the SpectraMax Gemini™ XS spectrofluorometer (Molecular Devices, LLC.™) set at excitation and emission wavelengths of 555 and 585 nm, respectively. Cellular viability was expressed relative (%) to vehicle-treated cells. Data are from at least three independent experiments.

mNG-SARS-CoV-2 [2] = assay: microbe, parasite or virus in culture
SARS-CoV-2 VIDO = SARS-CoV-2 VIDO infection of Calu-3 cells, nucleocapsid and dsRNA staining; format: cell-based; details: Severe acute respiratory syndrome coronavirus 2, 3 hr pretreatment
SARS-CoV-2 Omicron BA.2 = assay: microbe, parasite or virus in culture; format: cell-based; details: Severe acute respiratory syndrome coronavirus 2, Calu-3 cells
[3] = system: SARS-CoV-2 Delta B.1.617.2; assay: microbe, parasite or virus in culture; format: cell-based
SARS-CoV-2 Omicron BA.5 = assay: microbe, parasite or virus in culture; format: cell-based; details: Severe acute respiratory syndrome coronavirus 2, Calu-3 cells
mNG-SARS-CoV-2 [4] = assay: in vitro; details: human
proteins Kinase C (PKC) = details: Wang 2016; cited from earlier work
mNG-SARS-CoV-2 [5] = format: cell-based; details: Huh7.5.1 cells pretreated 3 hours with serial dilutions
[6] = Severe acute respiratory syndrome coronavirus 2, Calu-3, read-out: EC50 BA.1

| SMILES | SARS-COV-2 Activity (SARS-CoV-2 Omicron BA.1) | inhibition of SARS-CoV-2 Omicron, dsRNA and nucleocapsids as indicators of viral load (SARS-CoV-2 Omicron BA.1; Calu-3 cells) | potency compared with Alotaketal C (SARS-CoV-2 Omicron BA.1) | CC50 at 48 h [1] [µM] | SI (selectivity index) (SARS-CoV-2 Omicron BA.1) | EC50 (SARS-CoV-2 Omicron BA.1; [6]) [µM] | also measured |
| --- | --- | --- | --- | --- | --- | --- | --- |
| CC1=C[C@H]2O[C@]3(C=C(CO)[C@H]2CC1=O)CCCCO3 [Compound I10-H, (2S,4aR,8aR)-4-(hydroxymethyl)-7-methyl-3′,4a,4′,5′,6′,8a-hexahydrospiro[chromene-2,2′-pyran]-6(5H)-one] | no | no inhibition activity | decreased | ≥ 100 |  |  |  |
| CCCCCCCC[C@@H]1CCC[C@]2(C=C(CO)[C@H]3CC(=O)C(C)=C[C@H]3O2)O1 [Compound I10-Oct, (2S,4aR,6′R,8aR)-4-(hydroxymethyl)-7-methyl-6′-octyl-3′,4a,4′,5′,6′,8a-hexahydrospiro[chromene-2,2′-pyran]-6(5H)-one] | yes | good inhibition |  | ≥ 101 | 100.6 | 1 |  |
| CC(C)=CCC(C)CCCC1CCC[C@]2(C=C(CO)[C@H]3CC(=O)C(C)=C[C@H]3O2)O1 (stereo in doubt) [Compound I10-Cit3, (2S,4aR,6′R,8aR)-6′-(4,7-dimethyloct-6-en-1-yl)-4-(hydroxymethyl)-7-methyl-3′,4a,4′,5′,6′,8a-hexahydrospiro[chromene-2,2′-pyran]-6(5H)-one] | no | no inhibition activity | decreased | ≥ 100 |  |  |  |
| CCCCCCCCCC[C@H]1CCC[C@]2(C=C(CO)[C@H]3CC(=O)C(C)=C[C@H]3O2)O1 [Compound I10-Dec01, (2S,4aR,6'S,8aR)-4-(hydroxymethyl)-7-methyl-6′-decyl-3′,4a,4′,5′,6′,8a-hexahydrospiro[chromene-2,2′-pyran]-6(5H)-one] | no | no inhibition activity | decreased | ≥ 339 |  |  |  |
| CC(=O)O[C@]1(C)C[C@@H](/C=C(\C)CCC=C(C)C)O[C@@]2(C=C(CO)[C@H]3CC(=O)C(C)=C[C@H]3O2)C1 [Alotaketal C] | yes |  |  | ≥ 100 | 181.8 | 0.55 | EC50 (SARS-CoV-2 Omicron BA.1; Severe acute respiratory syndrome coronavirus 2, Calu-3 cells, dsRNA marker, read-out: dsRNA (EC50), Omicron BA.1): 0.4 µM; EC50 (SARS-CoV-2 Omicron BA.1; Severe acute respiratory syndrome coronavirus 2, Calu-3 cells, nucleocapsid marker, read-out: Nucleocapsid (EC50), Omicron BA.1): 0.7 µM; EC50 (mNG-SARS-CoV-2 [2]; Severe acute respiratory syndrome coronavirus 2, Calu-3, read-out: EC50, inhibition of mNG-SARS-CoV-2 infection): 0.11 µM; EC50 (mNG-SARS-CoV-2 [2]; Severe acute respiratory syndrome coronavirus 2, Calu-3, read-out: EC50, secondary screening of hits): 0.08 µM; inhibition at 50 µM (mNG-SARS-CoV-2 [2]; Severe acute respiratory syndrome coronavirus 2, Calu-3, read-out: inhibition of SARS-CoV-2 infection): 90.6%; EC50 (SARS-CoV-2 VIDO; dsRNA marker, read-out: dsRNA EC50, VIDO): 1.33 µM; EC50 (SARS-CoV-2 VIDO; nucleocapsid marker, read-out: Nucleocapsid EC50, VIDO): 1.44 µM; EC50 (SARS-CoV-2 Omicron BA.2; dsRNA marker, read-out: dsRNA (EC50), Omicron BA.2): 0.7 µM; EC50 (SARS-CoV-2 Omicron BA.2; nucleocapsid marker, read-out: Nucleocapsid (EC50), Omicron BA.2): 0.7 µM; EC50 ([3]; Calu-3 cells, dsRNA marker, read-out: dsRNA (EC50), Delta B.1.617.2): 3.9 µM; EC50 ([3]; Calu-3 cells, nucleocapsid marker, read-out: Nucleocapsid (EC50), Delta B.1.617.2): 4.9 µM; EC50 ([3]; Severe acute respiratory syndrome coronavirus 2, Calu-3, Calu-3 cells, dsRNA marker, read-out: dsRNA (EC50), Delta B.1.617.2): 3.96 µM; EC50 ([3]; Severe acute respiratory syndrome coronavirus 2, Calu-3, Calu-3 cells, nucleocapsid marker, read-out: Nucleocapsid (EC50), Delta B.1.617.2): 4.89 µM; EC50 (SARS-CoV-2 Omicron BA.5; dsRNA marker, read-out: dsRNA (EC50), Omicron BA.5): 0.7 µM; EC50 (SARS-CoV-2 Omicron BA.5; nucleocapsid marker, read-out: Nucleocapsid (EC50), Omicron BA.5): 0.3 µM; selectivity ratio (mNG-SARS-CoV-2 [4]): 850; activation of protein kinase C (proteins Kinase C (PKC)): activates |
| CC(C)=CCC(C)CCCC1CCC[C@]2(C=C(CO)[C@H]3CC(=O)C(C)=C[C@H]3O2)O1 (stereo in doubt) [Compound I10-Cit4, (2S,4aR,6'S,8aR)-6′-(4,7-dimethyloct-6-en-1-yl)-4-(hydroxymethyl)-7-methyl-3′,4a,4′,5′,6′,8a-hexahydrospiro[chromene-2,2′-pyran]-6(5H)-one] | yes | good inhibition |  | ≥ 12700 | 50872 | 0.25 |  |
| CCCCCCCCCCCC[C@@H]1CCC[C@]2(C=C(CO)[C@H]3CC(=O)C(C)=C[C@H]3O2)O1 [Compound I10-DD2, (2S,4aR,6′R,8aR)-4-(hydroxymethyl)-7-methyl-6′-dodecyl-3′,4a,4′,5′,6′,8a-hexahydrospiro[chromene-2,2′-pyran]-6(5H)-one] | yes | good inhibition |  | ≥ 113 | 56.7 | 2 |  |
| CCCCCCCCCC[C@@H]1CCC[C@]2(C=C(CO)[C@H]3CC(=O)C(C)=C[C@H]3O2)O1 [Compound I10-Dec02, (2S,4aR,6′R,8aR)-4-(hydroxymethyl)-7-methyl-6′-decyl-3′,4a,4′,5′,6′,8a-hexahydrospiro [chromene-2, 2′-pyran]-6 (5H)-one] | yes | good inhibition |  | 74.3 | 297.2 | 0.25 |  |
| CC(C)C[C@H](NC(=O)OCc1ccccc1)C(=O)N[C@@H](C[C@@H]1CCNC1=O)C(O)S(=O)(=O)[O-].[Na+] (stereo partly drawn) [GC376] |  |  |  |  |  |  | reduction of mNG-SARS-CoV-2 infection (mNG-SARS-CoV-2 [5]): dose-dependent reduction |
